Experimental data reported in ChEMBL document CHEMBL1141237, “Synthesis and activity of N-acyl azacyclic urea HIV-1 protease inhibitors with high potency against multiple drug resistant viral strains” (Bioorg Med Chem Lett, 2005).

How the values were obtained:
[1] = test system: Human immunodeficiency virus 1; assay: Antiviral activity against HIV1 in the absence of human serum; format: functional, organism-based
[2] = target: Human immunodeficiency virus type 1 protease (Human immunodeficiency virus 1, UniProt Q72874); assay: Inhibitory activity against HIV1 protease
[3] = test system: Human immunodeficiency virus 1; assay: Antiviral activity against HIV1 in the presence of 50% human serum; format: functional, organism-based
[4] = target: Human immunodeficiency virus type 1 protease (Human immunodeficiency virus 1) (UniProt Q72874); assay: Inhibitory activity against HIV1 protease at 0.5 uM
[5] = test system: Human immunodeficiency virus; assay: Antiviral activity against indinavir resistant HIV IND-R mutant strain; format: functional, organism-based; conditions: Human immunodeficiency virus 1, IND-R
[6] = test system: Human immunodeficiency virus; assay: Antiviral activity against Lopinavir resistant HIV A17 mutant strain; format: functional, organism-based; conditions: Human immunodeficiency virus 1, A17
[7] = target: Human immunodeficiency virus type 1 protease (Human immunodeficiency virus 1) (UniProt Q72874); assay: Inhibitory activity against HIV1 protease at 1 uM

inhibition [7] | SMILES | EC50 [1] | IC50 [2] | EC50 [3] | inhibition [4] | EC50 [5] | EC50 [6]
 | COc1cc(CN2C(=O)N(Cc3ccc(O)c(OC)c3)N(C(=O)CN3CCCC3)C[C@@H](O)[C@H]2Cc2ccccc2)ccc1O | 0.572 µM | 0.0079 µM | 0.49 µM |  |  | 
 | COc1cc(CN2C(=O)N(Cc3ccc(O)c(OC)c3)N(C(=O)COc3ccccc3)C[C@@H](O)[C@H]2Cc2ccccc2)ccc1O | 0.929 µM |  | 5.15 µM | 53% |  | 
 | COc1cc(CN2C(=O)N(Cc3ccc(O)c(OC)c3)N(C(=O)CCc3ccco3)C[C@@H](O)[C@H]2Cc2ccccc2)ccc1O | 0.003 µM |  | 0.016 µM | 73% | 0.081 µM | 0.455 µM
 | COc1cc(CN2C(=O)N(Cc3ccc(O)c(OC)c3)N(C(=O)CN3CCNCC3)C[C@@H](O)[C@H]2Cc2ccccc2)ccc1O | 1.49 µM | 0.0061 µM | 3.22 µM |  |  | 
 | CC(C)CC(=O)N1C[C@@H](O)[C@@H](Cc2ccccc2)N(Cc2ccc(O)cc2)C(=O)N1Cc1ccc(O)cc1 | 0.03 µM |  |  | 65% | 0.171 µM | 0.312 µM
56% | CC(C)CC(=O)N1C[C@@H](O)[C@@H](Cc2ccccc2)N(Cc2ccc(N)cc2)C(=O)N1Cc1ccc(N)cc1 | 0.15 µM |  |  |  |  | 
 | CC(C)CC(=O)N1C[C@@H](O)[C@@H](Cc2ccccc2)N(Cc2cccc(N)c2)C(=O)N1Cc1cccc(N)c1 | 0.037 µM |  |  | 66% |  | 2.07 µM
 | COc1cc(CN2C(=O)N(Cc3ccc(O)c(OC)c3)N(C(=O)CCc3ccc(O)cc3)C[C@@H](O)[C@H]2Cc2ccccc2)ccc1O | 0.061 µM |  | 0.165 µM | 73% |  | 
 | COc1cc(CN2C(=O)N(Cc3ccc(O)c(OC)c3)N(C(=O)CC(C)C)C[C@@H](O)[C@H]2Cc2ccccc2)ccc1O | 0.009 µM |  | 0.027 µM | 73% | 0.094 µM | 0.586 µM
 | COc1cc(CN2C(=O)N(Cc3ccc(O)c(OC)c3)N(C(=O)CCc3ccoc3)C[C@@H](O)[C@H]2Cc2ccccc2)ccc1O | 0.009 µM |  | 0.018 µM | 68% | 0.227 µM | 0.562 µM
 | CC(C)c1nc(CN(C)C(=O)N[C@H](C(=O)N[C@@H](Cc2ccccc2)C[C@H](O)[C@H](Cc2ccccc2)NC(=O)OCc2cncs2)C(C)C)cs1 [RITONAVIR] | 0.022 µM |  | 0.483 µM |  |  | 1.24 µM
 | COc1cc(CN2C(=O)N(Cc3ccc(O)c(OC)c3)N(C(=O)CCc3ccc4c(c3)OCO4)C[C@@H](O)[C@H]2Cc2ccccc2)ccc1O | 0.004 µM |  | 0.056 µM | 73% | 0.054 µM | 0.065 µM
 | COc1cc(CN2C(=O)N(Cc3ccc(O)c(OC)c3)N(Cc3ccccc3)C[C@@H](O)[C@H]2Cc2ccccc2)ccc1O | 0.004 µM |  | 0.029 µM | 81% |  | 
 | COc1cc(CN2C(=O)N(Cc3ccc(O)c(OC)c3)N(C(=O)CCc3ccc(F)cc3)C[C@@H](O)[C@H]2Cc2ccccc2)ccc1O | 0.004 µM |  | 0.028 µM | 67% | 0.164 µM | 0.189 µM
 | COc1cc(CN2C(=O)N(Cc3ccc(O)c(OC)c3)N(C(=O)CCc3ccc(OC)c(OC)c3)C[C@@H](O)[C@H]2Cc2ccccc2)ccc1O | 0.015 µM |  | 0.047 µM | 72% |  | 
 | O=C(CCc1ccccc1)N1C[C@@H](O)[C@@H](Cc2ccccc2)N(Cc2ccc(O)cc2)C(=O)N1Cc1ccc(O)cc1 | 0.017 µM |  |  | 76% | 0.014 µM | 0.192 µM
 | COc1cc(CN2C(=O)N(Cc3ccc(O)c(OC)c3)N(C(=O)CCCN3CCOCC3)C[C@@H](O)[C@H]2Cc2ccccc2)ccc1O | 0.308 µM | 0.0038 µM | 0.576 µM |  |  | 

inhibition [7] | SMILES | EC50 [1] | IC50 [2] | EC50 [3] | inhibition [4] | EC50 [5] | EC50 [6]
 | COc1cc(CN2C(=O)N(Cc3ccc(O)c(OC)c3)N(C(=O)CCc3ccccc3)C[C@@H](O)[C@H]2Cc2ccccc2)ccc1O | 0.004 µM |  | 0.028 µM | 55% | 0.049 µM | 0.102 µM
 | Nc1[nH]nc2ccc(CN3C(=O)N(Cc4ccccc4)[C@H](Cc4ccccc4)[C@H](O)CN3C(=O)CCc3ccccc3)cc12 | 0.05 µM |  |  | 48% | 0.102 µM | 0.897 µM
 | O=C(CCc1ccccc1)N1C[C@@H](O)[C@@H](Cc2ccccc2)N(Cc2ccccc2)C(=O)N1Cc1ccc2[nH]ncc2c1 | 0.045 µM |  |  | 66% | 0.821 µM | 1.07 µM
 | COc1cc(CN2C(=O)N(Cc3ccc(O)c(OC)c3)N(C(=O)CCCCN3CCOCC3)C[C@@H](O)[C@H]2Cc2ccccc2)ccc1O | 0.086 µM | 0.0021 µM | 0.48 µM |  | 1.04 µM | > 10 µM
 | COc1cc(CN2C(=O)N(Cc3ccc(O)c(OC)c3)N(C(=O)CCCc3ccccc3)C[C@@H](O)[C@H]2Cc2ccccc2)ccc1O | 0.005 µM |  | 0.027 µM | 75% |  | 
 | COc1ccc(CCC(=O)N2C[C@@H](O)[C@@H](Cc3ccccc3)N(Cc3ccc(O)c(OC)c3)C(=O)N2Cc2ccc(O)c(OC)c2)cc1 | 0.006 µM |  | 0.048 µM | 67% | 0.088 µM | 0.133 µM
 | Nc1cccc(CN2C(=O)N(Cc3ccc4[nH]ncc4c3)N(C(=O)CCc3ccccc3)C[C@@H](O)[C@H]2Cc2ccccc2)c1 | 0.013 µM |  |  | 74% | 0.023 µM | 0.098 µM
 | COc1cc(CN2C(=O)N(Cc3ccc(N)c(OC)c3)N(C(=O)CCc3ccccc3)C[C@@H](O)[C@H]2Cc2ccccc2)ccc1N | 0.053 µM |  |  | 88% | 0.504 µM | 0.464 µM
 | Cc1cccc(C)c1OCC(=O)N[C@@H](Cc1ccccc1)[C@@H](O)C[C@H](Cc1ccccc1)NC(=O)[C@H](C(C)C)N1CCCNC1=O [LOPINAVIR] | 0.016 µM |  | 0.067 µM |  | 0.385 µM | 1.06 µM
 | COc1cc(CN2C(=O)N(Cc3ccc(O)c(OC)c3)N(C(=O)CCCC3CCCO3)C[C@@H](O)[C@H]2Cc2ccccc2)ccc1O (some centres not stated) | 0.009 µM |  | 0.077 µM | 76% |  | 
 | COc1cc(CN2C(=O)N(Cc3ccc(O)c(OC)c3)N(C(=O)CCCc3cccs3)C[C@@H](O)[C@H]2Cc2ccccc2)ccc1O | 0.004 µM |  | 0.056 µM | 64% |  | 
 | COc1cccc(CCC(=O)N2C[C@@H](O)[C@@H](Cc3ccccc3)N(Cc3ccc(O)c(OC)c3)C(=O)N2Cc2ccc(O)c(OC)c2)c1 | 0.004 µM |  | 0.062 µM | 67% |  | 
 | COc1cc(CN2C(=O)N(Cc3ccc(O)c(OC)c3)N(C(=O)CCc3ccncc3)C[C@@H](O)[C@H]2Cc2ccccc2)ccc1O | 0.212 µM | 0.0012 µM | 0.546 µM |  |  | 
 | COc1cc(CN2C(=O)N(Cc3ccc(O)c(OC)c3)N(C(=O)CC3CCCC3)C[C@@H](O)[C@H]2Cc2ccccc2)ccc1O | 0.003 µM |  | 0.06 µM | 66% | 0.132 µM | 0.367 µM
 | COc1cc(CN2C(=O)N(Cc3ccc(O)c(OC)c3)N(C(=O)CCc3cccnc3)C[C@@H](O)[C@H]2Cc2ccccc2)ccc1O | 0.054 µM |  | 0.353 µM | 58% |  | 
 | N/C(=N/O)c1cccc(CN2C(=O)N(Cc3ccccc3)N(C(=O)CCc3ccccc3)C[C@@H](O)[C@H]2Cc2ccccc2)c1 | 0.045 µM |  |  | 73% |  | 2.02 µM
 | N/C(=N/O)c1cccc(CN2C(=O)N(Cc3ccc4[nH]ncc4c3)N(C(=O)CCc3ccccc3)C[C@@H](O)[C@H]2Cc2ccccc2)c1 | 0.074 µM |  |  | 90% | 0.058 µM | 0.084 µM
